Measurements as given in patent US5602106A, “16-membered macrolide derivatives” (priority 1993, dated 1997).
Converted amounts (≈) assume the structure as drawn. Where two headings read alike, the source gives them in different places.

Key:
Format in all cases: cell-based
test strains = assay: Antimicrobial activity in vitro, test strains overall; conditions: for antimicrobial activities in comparison with rokitamycin: vs rokitamycin
Description: (§1) The effect of the first aspect of the present invention resides in the creation of a novel and useful 16-membered macrolide derivative. Antimicrobial activities of the compounds of the present invention were determined by measuring minimum inhibitory concentration (MIC). Minimum inhibitory concentration was determined by the agar plate dilution method in the following manner.
(§2) Test strains were subjected to seed culture using Sensitivity test broth (STB, Nissui Pharmaceutical) except that the strains belonging to the genus Streptococcus, Branhamella and Haemophilus were cultured on blood agar plate. A 5 μl portion of cell suspension of the test strains having about 10^6 CFU/ml was inoculated into Sensitivity disk agar (SDA, Nissui Pharmaceutical) supplemented with 5% horse blood and incubated at 37° C. for 20 hours. Then, MIC was measured. […] Antimicrobial activities in vitro of the compounds (1) and (2) are shown in Table 1, and those of the compounds (3) and (4) in Table 3.

S. aureus MS15009/pMS98 = assay: MIC, agar plate dilution method; conditions: Staphylococcus aureus, MS15009/PMS98, 20 h, read-out: Antimicrobial activity (MIC), 37° C., 20 hours, SDA with 5% horse blood
Description: as §1, §2

S. aureus 209P JC-1 = assay: MIC, agar plate dilution method; conditions: 37° C., 20 hours, SDA with 5% horse blood; for MIC: Staphylococcus aureus, 209P, 20 h, read-out: Antimicrobial activity (MIC)
Description: as §1, §2

S. pneumoniae IP692 = assay: MIC, agar plate dilution method; conditions: Streptococcus pneumoniae, IP692, 20 h, 37° C., 20 hours, SDA with 5% horse blood; read-out: Antimicrobial activity (MIC)
Description: as §1, §2

H. influenzae Type b = assay: MIC, agar plate dilution method; conditions: Haemophilus influenzae
Description: as §1, §2

S. aureus MS15009/pMS99 = assay: MIC, agar plate dilution method; conditions: Staphylococcus aureus, MS15009/PMS99, 20 h, read-out: Antimicrobial activity (MIC)
Description: as §1, §2

K. pneumoniae PCI602 = assay: MIC, agar plate dilution method; conditions: 37° C., SDA with 5% horse blood; for MIC: Klebsiella pneumoniae, PCI602, 20 h, read-out: Antimicrobial activity (MIC)
Description: as §1, §2

B. catarrhalis W-0400 = assay: MIC, agar plate dilution method; conditions: Moraxella catarrhalis, W0400, 20 h, read-out: Antimicrobial activity (MIC)
Description: as §1, §2

S. aureus MS15027 = assay: MIC, agar plate dilution method; conditions: Staphylococcus aureus
Description: as §1, §2

S. aureus M126 = assay: MIC, agar plate dilution method; conditions: Staphylococcus aureus, 37° C., 20 hours, SDA with 5% horse blood, read-out: Antimicrobial activity (MIC)
Description: as §1, §2

E. coli NIHJ JC-2 = assay: MIC, agar plate dilution method; conditions: 37° C., SDA with 5% horse blood; for MIC: Escherichia coli, NIHJJC2, 20 h, read-out: Antimicrobial activity (MIC)
Description: as §1, §2

E. faecalis W-73 = assay: MIC, agar plate dilution method; conditions: Enterococcus faecalis, W73, 20 h, read-out: Antimicrobial activity (MIC)
Description: as §1, §2

H. influenzae 9334 = assay: MIC, agar plate dilution method
Description: as §1, §2

M. luteus ATCC9341 = assay: MIC, agar plate dilution method; conditions: Micrococcus luteus, ATCC9341; 37° C., 20 hours, SDA with 5% horse blood; read-out: Antimicrobial activity (MIC)
Description: as §1, §2

S. pyogenes Cook = assay: MIC, agar plate dilution method; conditions: Streptococcus pyogenes; 37° C., 20 hours, SDA with 5% horse blood; read-out: Antimicrobial activity (MIC)
Description: as §1, §2

S. pneumoniae Type 1 = assay: MIC, agar plate dilution method; conditions: Streptococcus pneumoniae, TYPE1; 37° C., 20 hours, SDA with 5% horse blood; read-out: Antimicrobial activity (MIC)
Description: as §1, §2

S. epidermidis ATCC14990 = assay: MIC, agar plate dilution method; conditions: Staphylococcus epidermidis, ATCC14990, 20 h, read-out: Antimicrobial activity (MIC), 37° C., 20 hours, SDA with 5% horse blood
Description: as §1, §2

B. catarrhalis W-0506 = assay: MIC, agar plate dilution method; conditions: for MIC: Moraxella catarrhalis, W0506, 20 h, read-out: Antimicrobial activity (MIC), 37° C., 20 hours, SDA with 5% horse blood
Description: as §1, §2

S. aureus MS15026 = assay: MIC, agar plate dilution method; conditions: Staphylococcus aureus, 37° C., 20 hours, SDA with 5% horse blood, read-out: Antimicrobial activity (MIC)
Description: as §1, §2

S. aureus M133 = assay: MIC, agar plate dilution method; conditions: Staphylococcus aureus, M133, 20 h, read-out: Antimicrobial activity (MIC), 37° C., 20 hours, SDA with 5% horse blood
Description: as §1, §2

B. catarrhalis W-0500 = assay: MIC, agar plate dilution method; conditions: Moraxella catarrhalis, W0500, 20 h, read-out: Antimicrobial activity (MIC), 37° C., 20 hours, SDA with 5% horse blood
Description: as §1, §2

[1] = test system: clinically important Gram-positive bacteria; assay: Antimicrobial activity / growth inhibition
Description: as §1, §2

[2] = MS15027, 20 h, read-out: Antimicrobial activity (MIC), 37° C., 20 hours, SDA with 5% horse blood
[3] = Haemophilus influenzae, 9334, 20 h, read-out: Antimicrobial activity (MIC), 37° C., 20 hours, SDA with 5% horse blood
[4] = 20 h, read-out: Antimicrobial activity (MIC), 37° C., 20 hours, SDA with 5% horse blood

Row | SMILES | antimicrobial activities in comparison with rokitamycin (test strains) | MIC (S. aureus MS15009/pMS98) [µg/mL] | MIC (S. aureus 209P JC-1) [µg/mL] | MIC (S. pneumoniae IP692) [µg/mL] | MIC (S. aureus MS15009/pMS99) [µg/mL] | MIC (K. pneumoniae PCI602) [µg/mL] | MIC (B. catarrhalis W-0400) [µg/mL] | MIC (S. aureus MS15027; [2]) [µg/mL] | MIC (S. aureus M126) [µg/mL] | MIC (E. coli NIHJ JC-2) [µg/mL] | MIC (E. faecalis W-73) [µg/mL] | MIC (H. influenzae 9334; [3]) [µg/mL] | MIC (M. luteus ATCC9341) [µg/mL] | MIC (S. pyogenes Cook) [µg/mL] | MIC (S. pneumoniae Type 1) [µg/mL] | MIC (S. epidermidis ATCC14990) [µg/mL] | MIC (B. catarrhalis W-0506) [µg/mL] | MIC (S. aureus MS15026) [µg/mL] | MIC (S. aureus M133) [µg/mL] | MIC (H. influenzae Type b; [4]) [µg/mL] | other results
1 | CCCC(=O)O[C@H]1[C@H](C)O[C@@H](O[C@H]2[C@H](N(C)C)[C@@H](O)[C@H](O[C@H]3[C@@H](CC=O)C[C@@H](C)[C@@H](O)/C=C/C=C/C[C@@H](C)OC(=O)C[C@@H](O)[C@@H]3OC)O[C@@H]2C)C[C@@]1(C)OC [(33), 3"-O-methylleucomycin A5] | markedly excellent antimicrobial activities in vitro | 0.1 (≈ 0.127 µM) | 0.05 (≈ 0.0636 µM) | < 0.025 | > 100 | 100 (≈ 127 µM) | 0.1 (≈ 0.127 µM) | 0.2 (≈ 0.254 µM) | > 100 | > 100 | 0.78 (≈ 0.992 µM) | 0.2 (≈ 0.254 µM) | < 0.025 | < 0.025 | < 0.025 | 0.2 (≈ 0.254 µM) | 0.2 (≈ 0.254 µM) | > 100 | 0.2 (≈ 0.254 µM) |  | antimicrobial activities compared with clarithromycin (test strains; vs clarithromycin): completely comparable to those of clarithromycin; antimicrobial activities in comparison with compound (2) (test strains; vs compound (2)): generally improved antimicrobial activities; MIC (H. influenzae Type b; 37° C., 20 hours, SDA with 5% horse blood, read-out: Antimicrobial activity (MIC)): 1.56 µg/mL (≈ 1.98 µM)
2 | CCCCC(=O)O[C@H]1[C@H](C)O[C@@H](O[C@H]2[C@H](N(C)C)[C@@H](O)[C@H](O[C@H]3[C@@H](CC=O)C[C@@H](C)[C@@H](O)/C=C/C=C/C[C@@H](C)OC(=O)C[C@@H](O)[C@@H]3OC)O[C@@H]2C)C[C@@]1(C)OC [(48), 3"-O-methyl-4"-O-n-valerylleucomycin V] | markedly excellent antimicrobial activities | 0.2 (≈ 0.25 µM) | 0.05 (≈ 0.0625 µM) | < 0.025 | > 100 | > 100 |  | 0.2 (≈ 0.25 µM) | > 100 | > 100 | 0.78 (≈ 0.975 µM) | 0.78 (≈ 0.975 µM) | < 0.025 | < 0.025 | < 0.025 | 0.2 (≈ 0.25 µM) | 0.2 (≈ 0.25 µM) | > 100 | 0.2 (≈ 0.25 µM) | 6.25 (≈ 7.81 µM) | antimicrobial activities compared with compound (58) (test strains; vs compound (58)): slightly superior antimicrobial activities; MIC (B. catarrhalis W-0500): 0.1 µg/mL (≈ 0.125 µM); antimicrobial activities (in words) [1]: markedly strong microbial activities
3 | CC[C@H]1OC(=O)[C@H](C)[C@@H](O[C@H]2C[C@@](C)(OC)[C@@H](O)[C@H](C)O2)[C@H](C)[C@@H](O[C@@H]2O[C@H](C)C[C@H](N(C)C)[C@H]2O)[C@](C)(OC)C[C@@H](C)C(=O)[C@H](C)[C@@H](O)[C@]1(C)O [CAM, clarithromycin, reference compound] |  | > 100 | 0.05 (≈ 0.0668 µM) | < 0.025 | > 100 | 100 (≈ 134 µM) | 0.1 (≈ 0.134 µM) | > 100 | > 100 | 100 (≈ 134 µM) | 0.78 (≈ 1.04 µM) |  | < 0.025 | < 0.025 | < 0.025 | 0.1 (≈ 0.134 µM) | 0.2 (≈ 0.267 µM) | > 100 |  | 6.25 (≈ 8.36 µM) | Antimicrobial activity (MIC) (S. aureus 209P JC-1): 0.10 µg/mL; Antimicrobial activity (MIC) (K. pneumoniae PCI602; 20 hours): 50 µg/mL; MIC (S. aureus MS15027; MS15027, 37° C., 20 hours, SDA with 5% horse blood, read-out: Antimicrobial activity (MIC)): 1.56 µg/mL (≈ 2.09 µM); Antimicrobial activity (MIC) (E. coli NIHJ JC-2; 20 hours): 50 µg/mL; MIC (H. influenzae 9334; Haemophilus influenzae, 9334, 37° C., 20 hours, SDA with 5% horse blood, read-out: Antimicrobial activity (MIC)): 1.56 µg/mL (≈ 2.09 µM); MIC (B. catarrhalis W-0500): 0.2 µg/mL (≈ 0.267 µM); Antimicrobial activity (MIC) (B. catarrhalis W-0506; 37° C., 20 hours, SDA with 5% horse blood): 0.10 µg/mL
